According to ChEMBL document CHEMBL1122531 (J Med Chem, 1984):

Assays:
[1] = target: T1, Opioid receptor (Rattus norvegicus, UniProt P33533+P34975+P33535); format: cell membranes, Brain, Membrane
[2] = tested on: Mus musculus; assay: Compound was evaluated in vivo for its effective dose at which half of the mice were effected using Nilsen assay (NA) by administering the compound Subcutaneously; format: functional; details: sc
[3] = tested on: Mus musculus; assay: Compound was evaluated in vivo for its effective dose at which half of the mice were effected using hotplate assay (HPA) by administering the compound subcutaneously; format: functional; details: sc
[4] = target: T1, Opioid receptor; format: cell membranes, Brain, Membrane; remark: listed apart in the source
[5] = tested on: Mus musculus; assay: In vivo inhibition of subcutaneously administered naloxone-elicited opioid type withdrawal jumping (IWJ) after 72 hours in physically dependent male mice (strain Fullinsdorf-Albino SPF). Dose 0.41 g/uM; format: functional; details: sc
[6] = tested on: Oryctolagus cuniculus; assay: Compound was evaluated in vivo for the respiratory activity in four conscious rabbits. The percent change in respiration rate in comparison to the 10-minute period prior to the injection, dose 0.41 g/uM; format: functional
[7] = tested on: Mus musculus; assay: Compound was evaluated in vivo for its effective dose at which half of the mice were effected using hotplate assay (HPA) by administering the compound subcutaneously.; format: functional; details: sc
[8] = tested on: Oryctolagus cuniculus; assay: Compound was evaluated in vivo for the respiratory activity in four conscious rabbits. The percent change of the respiratory volume in comparison to the 10-minute prior to the injection, dose 0.41 g/uM; format: functional
[9] = tested on: Mus musculus; assay: In vivo inhibition of subcutaneously administered naloxone-elicited opioid type withdrawal jumping (IWJ) after 72 hours in physically dependent male mice (strain Fullinsdorf-Albino SPF). Dose 0.005 g/uM; format: functional; details: sc
[10] = tested on: Oryctolagus cuniculus; assay: Compound was evaluated in vivo for the respiratory activity in four conscious rabbits. The percent change of the respiratory volume in comparison to the 10-minute prior to the injection, dose 0.005 g/uM; format: functional
[11] = tested on: Mus musculus; assay: Compound was evaluated in vivo for its effective dose at which half of the mice were effected using Nilsen assay (NA) by administering the compound perorally (po).; format: functional
[12] = tested on: Oryctolagus cuniculus; assay: Compound was evaluated in vivo for the respiratory activity in four conscious rabbits. The percent change in respiration rate in comparison to the 10-minute period prior to the injection, dose 0.005 g/uM; format: functional
[13] = tested on: Mus musculus; assay: Compound was evaluated in vivo for its effective dose at which half of the mice were effected using hotplate assay (HPA) by administering the compound perorally (po).; format: functional
[14] = tested on: Mus musculus; assay: Compound was evaluated in vivo for its effective dose at which half of the mice were effected using hotplate assay (HPA) by administering the compound perorally (po); format: functional
[15] = tested on: Mus musculus; assay: In vivo inhibition of subcutaneously administered naloxone-elicited opioid type withdrawal jumping (IWJ) after 72 hours in physically dependent male mice (strain Fullinsdorf-Albino SPF), dose 0.017 g/uM; format: functional; details: sc
[16] = tested on: Mus musculus; assay: Compound was evaluated in vivo for its effective dose at which half of the mice were effected using Nilsen assay (NA) by administering the compound perorally (po); format: functional
[17] = tested on: Oryctolagus cuniculus; assay: Compound was evaluated in vivo for the respiratory activity in four conscious rabbits. The percent change of the respiratory volume in comparison to the 10-minute prior to the injection, dose 0.017 g/uM; format: functional
[18] = tested on: Oryctolagus cuniculus; assay: Compound was evaluated in vivo for the respiratory activity in four conscious rabbits. The percent change in respiration rate in comparison to the 10-minute period prior to the injection, dose 0.017 g/uM; format: functional
[19] = tested on: Oryctolagus cuniculus; assay: Compound was evaluated in vivo for the respiratory activity in four conscious rabbits. The percent change of the respiratory volume in comparison to the 10-minute prior to the injection, dose 0.08 kg/uM; format: functional
[20] = tested on: Mus musculus; assay: In vivo inhibition of subcutaneously administered naloxone-elicited opioid type withdrawal jumping (IWJ) after 72 hours in physically dependent male mice (strain Fullinsdorf-Albino SPF), dose 0.08 kg/uM; format: functional; details: sc
[21] = tested on: Oryctolagus cuniculus; assay: Compound was evaluated in vivo for the respiratory activity in four conscious rabbits. The percent change in respiration rate in comparison to the 10-minute period prior to the injection, dose 0.08 kg/uM; format: functional
[22] = tested on: Oryctolagus cuniculus; assay: Compound was evaluated in vivo for the respiratory activity in four conscious rabbits. The percent change of the respiratory volume in comparison to the 10-minute prior to the injection, dose 0.67 kg/uM; format: functional
[23] = tested on: Mus musculus; assay: In vivo inhibition of subcutaneously administered naloxone-elicited opioid type withdrawal jumping (IWJ) after 72 hours in physically dependent male mice (strain Fullinsdorf-Albino SPF).; format: functional; details: sc
[24] = tested on: Oryctolagus cuniculus; assay: Compound was evaluated in vivo for the respiratory activity in four conscious rabbits. The percent change in respiration rate in comparison to the 10-minute period prior to the injection, dose 0.67 kg/uM; format: functional
[25] = tested on: Oryctolagus cuniculus; assay: Compound was evaluated in vivo for the respiratory activity in four conscious rabbits. The percent change of the respiratory volume in comparison to the 10-minute prior to the injection, dose 0.18 kg/uM; format: functional
[26] = tested on: Oryctolagus cuniculus; assay: Compound was evaluated in vivo for the respiratory activity in four conscious rabbits. The percent change in respiration rate in comparison to the 10-minute period prior to the injection, dose 0.18 kg/uM; format: functional
[27] = tested on: Mus musculus; assay: In vivo inhibition of subcutaneously administered naloxone-elicited opioid type withdrawal jumping (IWJ) after 72 hours in physically dependent male mice (strain Fullinsdorf-Albino SPF), dose 0.18 kg/uM; format: functional; details: sc
[28] = tested on: Mus musculus; assay: In vivo inhibition of subcutaneously administered naloxone-elicited opioid type withdrawal jumping (IWJ) after 72 hours in physically dependent male mice (strain Fullinsdorf-Albino SPF), dose 0.17 kg/uM; format: functional; details: sc
[29] = tested on: Oryctolagus cuniculus; assay: Compound was evaluated in vivo for the respiratory activity in four conscious rabbits. The percent change in respiration rate in comparison to the 10-minute period prior to the injection, dose 0.17 kg/uM; format: functional
[30] = tested on: Oryctolagus cuniculus; assay: Compound was evaluated in vivo for the respiratory activity in four conscious rabbits. The percent change of the respiratory volume in comparison to the 10-minute prior to the injection, dose 0.17 kg/uM; format: functional
[31] = species on record: Mus musculus; assay: animal or person; details: sc, 72 h
[32] = tested on: Oryctolagus cuniculus; assay: Compound was evaluated in vivo for the respiratory activity in four conscious rabbits. The percent change of the respiratory volume in comparison to the 10-minute prior to the injection, dose 0.03 kg/uM; format: functional
[33] = tested on: Oryctolagus cuniculus; assay: Compound was evaluated in vivo for the respiratory activity in four conscious rabbits. The percent change in respiration rate in comparison to the 10-minute period prior to the injection, dose 0.03 kg/uM; format: functional

Row | SMILES | IC50 [1] [nM] | ED50 [2] [µmol/kg] | ED50 [3] [µmol/kg] | IC50 [4] [nM] | ED50 [7] [µmol/kg] | ED50 [14] [µmol/kg] | ED50 [16] [µmol/kg] | other results
1 | CN1CC[C@]23CC(=O)CC[C@@]2(O)[C@H]1Cc1ccccc13 | 0.3 | 2 | 1.8 | 12 | – | – | – | –
2 | Br.CO[C@@]12CCC(=O)[C@@H]3Oc4c(OCc5ccccc5)ccc5c4[C@@]31CCN(C)C2C5 | 0.8 | – | – | 9 | 2.7 | – | – | ED50 [5]: 5.3 µmol/kg; Change [6]: -38%; Change [8]: -32%
3 | Br.CO[C@@]12CCC(=O)[C@@H]3Oc4c(O)ccc5c4[C@@]31CCN(C)C2C5 | 0.003 | 0.02 | – | 0.08 | 0.008 | – | – | ED50 [9]: 0.08 µmol/kg; Change [10]: -26%; ED50 [11]: 0.5 µmol/kg; Change [12]: -33%; ED50 [13]: 0.5 µmol/kg
4 | COc1cccc2c1[C@]13CCN(C)[C@H](C2)[C@]1(O)CCC(=O)C3 | 0.75 | – | 0.5 | 3.7 | – | 5 | – | –
5 | COc1ccc2c(c1OC)[C@]13CCN(C)[C@H](C2)[C@]1(OC)CCC(=O)C3 | 0.085 | 0.05 | 0.06 | 0.85 | – | 0.3 | 0.6 | ED50 [15]: 1.6 µmol/kg; Change [17]: -48%; Change [18]: -50%
6 | CN1CC[C@]23c4c5ccc(O)c4O[C@H]2C(=O)CC[C@@]3(O)[C@H]1C5 [OXYMORPHONE] | – | – | – | – | 0.3 | – | – | ED50 [13]: 3 µmol/kg
7 | COc1ccc2c(c1OC)[C@]13CCN(C)[C@H](C2)[C@]1(O)CCC(=O)C3 | 0.5 | 0.3 | 0.4 | 1.2 | – | – | – | –
8 | CN1CC[C@]23c4c5cccc4O[C@H]2C(=O)CC[C@@]3(O)[C@H]1C5 | 1.4 | – | – | 16 | 1.6 | – | – | ED50 [13]: 31 µmol/kg
9 | COc1ccc2c(c1O)[C@]13CCN(C)[C@H](C2)[C@]1(OC)CCC(=O)C3 | 0.5 | 0.5 | 0.8 | 11 | – | 2.4 | 5.4 | –
10 | CN1CC[C@]23CC(=O)CC[C@@]2(O)[C@H]1Cc1cccc(O)c13 | 0.2 | – | 2 | 3.4 | – | 3.5 | – | –
11 | COc1cccc2c1[C@]13CCN(C)[C@H](C2)[C@]1(OC)CCC(=O)C3 | 0.3 | 0.06 | 0.06 | 3.5 | – | 1.1 | 1.6 | Change [19]: -64%; ED50 [20]: 2.4 µmol/kg; Change [21]: -66 µM/kg
12 | CO[C@@]12CCC(=O)[C@@H]3Oc4cccc5c4[C@@]31CCN(C)[C@@H]2C5 | 0.2 | 0.3 | – | 16 | 0.3 | – | – | Change [22]: -68%; ED50 [23]: 14 µmol/kg; Change [24]: -75%; ED50 [11]: 4.7 µmol/kg; ED50 [13]: 2.8 µmol/kg
13 | CO[C@@]12CCC(=O)C[C@@]13CCN(C)[C@@H]2Cc1ccccc13 | 0.2 | 0.2 | 0.1 | 6 | – | 2.2 | 2.3 | Change [25]: -48%; Change [26]: -52%; ED50 [27]: 7 µmol/kg
14 | CO[C@@]12CCC(=O)C[C@@]13CCN(C)[C@@H]2Cc1cccc(O)c13 | 0.02 | 0.4 | 0.5 | 0.7 | – | 1.2 | 1 | ED50 [28]: 2.9 µmol/kg; Change [29]: -32%; Change [30]: -40%
15 | CN1CC[C@]23c4c5ccc(O)c4O[C@H]2[C@@H](O)C=C[C@H]3[C@H]1C5.Cl [MORPHINE HYDROCHLORIDE] | – | – | – | – | – | – | – | ED50 [31]: 59 µmol/kg; Change [32]: 38.3%; Change [33]: -43%
